Test results from patent US20230190779A1, “Agent for Improving Symptoms of Menopause” (Kao Corporation, priority 2020, published 2023).

Biological target: T1, human TRPV4 (Homo sapiens, UniProt Q9HBA0)
T1 construct: expressed in transfected cells; host or cells: HeLa cells (human cervical cancer-derived, ATCC), transient transfection
Assay: Suppression of TRPV4 activity: intracellular calcium ion influx in human TRPV4 expression HeLa cells stimulated with GSK1016790a
Assay type: cell-based
Conditions: GSK + solvent = 100%, n = 3, Mean ± SE
Method: Using a primer set consisting of oligonucleotides represented by the base sequences described below which was synthesized with reference to the published human TRPV4 gene sequence using cDNA obtained by reverse transcribing the total RNA extracted from human duodenum-derived cells (Hutu-80 cells, purchased from American Type Culture Collection) as a template, the polymerase chain reaction (PCR) was carried out under the following conditions.
The obtained PCR product was purified using a High Pure PCR Product Purification Kit (manufactured by Roche). Using the purified PCR product and pcDNA3.1 Directional TOPO Expression Kit (manufactured by Invitrogen), a human TRPV4 gene expression vector was produced.
A human cervical cancer-derived cell line (HeLa cells, purchased from American Type Culture Collection) was cultured using a DMEM/F12 medium containing 10% fetal bovine serum (manufactured by Invitrogen). HeLa cells were seeded in a 10 cm cell culture dish at 2×10^5 cells/dish. After culturing for 2 days, the cells were transfected with the human TRPV4 gene expression vector (7.7 lag) produced in the above (1) using TransIT-HeLaMONSTER Transfection Kit (manufactured by Mirus) and cultured for 1 day.
The cells were detached using Detachin (manufactured. by Genlantis Inc.), seeded in a DMEM/F12 medium containing 10% fetal bovine serum on a 96 well Optical bottom plate (manufactured by Nunc A/S) at a cell density of 2.0×10^4 cells/90 μL/well, and further cultured for 1 day.
Measurement of the intracellular calcium ion influx activity was carried out using Calcium Kit II-fluo 4 (trade name, DOJTNDO). 90 μL/well of a loading buffer containing Fluo4-AM was added to the human TRPV4 expression cells produced in the above (2), and incubated at 37° C. for 1 hour. Thereafter, the fluorescence intensity (excitation wavelength: 488 nm, fluorescence wavelength: 524 nm) was measured at 37° C. every two seconds using a fluorescence plate reader (FDSS/μCFLL Functional Drug Screening System C13299, manufactured by Hamamatsu Photonics K. K.). After 30 seconds from the start of the measurement, each of GSK1016790a (manufactured by Sigma) which is the TRPV4 agonist, and the cassis extract, or D3R, C3R, D3G, or C3G prepared in the above Production Example as the sample was diluted with a dilution buffer of the measurement kit, 20 μL/well of a mixed solution thereof (mixed immediately before addition) was added, and the change of fluorescence intensity was measured every two seconds until 300 seconds. […]
The TRPV4 activity of the sample was calculated by the following equation assuming that the calcium ion influx rate by the treatment of GSK1016790a which is the TRPV4 agonist was 100%. […]

T1 sequence (Q9HBA0 whole entry): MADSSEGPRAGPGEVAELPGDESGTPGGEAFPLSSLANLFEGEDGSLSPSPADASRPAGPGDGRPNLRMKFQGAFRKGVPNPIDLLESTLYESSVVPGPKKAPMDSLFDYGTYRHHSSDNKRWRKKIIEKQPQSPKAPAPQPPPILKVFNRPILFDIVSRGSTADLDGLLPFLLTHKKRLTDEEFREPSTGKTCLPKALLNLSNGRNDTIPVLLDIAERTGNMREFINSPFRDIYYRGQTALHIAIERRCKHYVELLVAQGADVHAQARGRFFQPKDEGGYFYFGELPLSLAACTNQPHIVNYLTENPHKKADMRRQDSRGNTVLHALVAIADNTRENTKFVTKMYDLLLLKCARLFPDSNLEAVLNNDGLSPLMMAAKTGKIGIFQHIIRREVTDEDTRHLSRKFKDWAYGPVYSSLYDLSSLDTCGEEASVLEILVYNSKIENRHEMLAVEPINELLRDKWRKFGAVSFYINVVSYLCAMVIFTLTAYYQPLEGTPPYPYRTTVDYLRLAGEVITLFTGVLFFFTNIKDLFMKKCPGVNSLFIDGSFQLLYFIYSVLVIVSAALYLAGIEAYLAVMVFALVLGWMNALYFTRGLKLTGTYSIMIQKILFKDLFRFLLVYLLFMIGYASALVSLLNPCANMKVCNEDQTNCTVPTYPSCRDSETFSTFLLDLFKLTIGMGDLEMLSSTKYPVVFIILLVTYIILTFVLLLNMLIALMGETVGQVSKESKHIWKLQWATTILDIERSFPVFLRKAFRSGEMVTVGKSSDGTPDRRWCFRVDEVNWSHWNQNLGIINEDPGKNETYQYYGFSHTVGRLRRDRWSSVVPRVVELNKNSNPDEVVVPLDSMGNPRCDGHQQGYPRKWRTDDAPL

Intracellular Ca^2+ increase rate (%) (sample 0.05 μg/mL + GSK 10 nM)	Intracellular Ca^2+ increase rate (%) (sample 0.5 μg/mL + GSK 10 nM)	Compound	Intracellular Ca^2+ increase rate (%) (sample 0.14 μg/mL + GSK 10 nM)	Intracellular Ca^2+ increase rate (%) (sample 1.4 μg/mL + GSK 10 nM)
–	–	OC[C@H]1O[C@@H](Oc2cc3c(O)cc(O)cc3[o+]c2-c2cc(O)c(O)c(O)c2)[C@H](O)[C@@H](O)[C@@H]1O [D3G, delphinidin-3-glucoside, reference compound]	101.4 ± 2.7	100.4 ± 3.2
94.4 ± 3.1	101.5 ± 4.1	OC[C@H]1O[C@@H](Oc2cc3c(O)cc(O)cc3[o+]c2-c2ccc(O)c(O)c2)[C@H](O)[C@@H](O)[C@@H]1O [C3G, cyanidin-3-glucoside, reference compound]	–	–
